Key:
[1] = target: T1, α-subunit of NaV1.2 neuronal sodium channels (Rattus norvegicus, UniProt P04775); assay: cell-based; conditions: for sensitivity at -70 mV holding potential compared to hyperpolarized holding potentials: -70 mV versus -100 and/or -150 mV; for nHR: Hill coefficient, resting state binding; for blocking potency compared with lidocaine (words): block of resting channels
Description: Stably transfected HEK 293 cell lines expressing the α-subunit of NaV1.2 neuronal sodium channels from a rat were used. The expression vector pRc/CMV (Invitrogen, San Diego, USA) was used for mammalian transfection. Transfection was performed using calcium phosphate precipitation. Permanent expression was achieved by selection for resistance to the aminoglycoside antibiotic geneticin G418 (Life Technology, Eggenstein, Germany).
The stock solution was then dissolved directly in bath solution. The bath solution contained [mM] NaCl 140, MgCl2 1.0, KCl 4.0, CaCl2 2.0, Hepes 5.0, dextrose 5.0. Patch electrodes contained [mM] CsCl2 130, MgCl2 2.0, EGTA 5.0, Hepes 10. All solutions were adjusted to 290 mosm 1^-1 by the addition of mannitol and to pH 7.4 by the addition ofCsOH.
Standard whole-cell voltage-clamp experiments were performed at 20°C. Each experiment consisted of test recordings with the drug present at only one concentration, and of drug-free control recordings before and after the test. Each cell was exposed to one test concentration only. At least three or five independent experiments were performed at each concentration depending on the active being tested.
For data acquisition and further analysis, a EPC9 digitally-controlled amplifier was used in combination with Pulse and Pulse Fit software (HEKA Electronics, Lambrecht, Germany). The EPC9 provides automatic subtraction of capacitive and leakage currents by means of a prepulse protocol. The data were filtered at 10 kHz and digitized at 20 µs per point. The input resistance of the patch pipettes was 2.0-3.5 MΩ and the capacitances of the cells were 9-15 pF; the residual series resistance (after 50% compensation) was 1.2-2.5 MΩ. Experiments with a rise in series resistance were rejected. To minimize time-dependent shifts in the voltage-dependence of steady-state inactivation, all test experiments were performed within 5 min of patch rupture.
Drug effects on the peak current amplitude were assessed at a hyperpolarized membrane potentials (-100 mV and -150mV), at a holding potential close to the normal resting potential in physiological conditions (-70 mV), and, additionally, at -100 mV in the presence of a fraction of slow inactivated channels. Slow inactivation was induced by long (2.5 s) prepulses to -90, -70, -50, -30 and -10 mV, followed by a short hyperpolarization to allow recovery from fast-inactivation. In our protocol the recovery interval was prolonged to 100 ms (instead of 10 ms originally described) in order to allow sufficient time not only for drug-free, but also for all drug-bound states to recover from fast inactivation. The residual sodium current (Inorm) in the presence of a drug (with respect to the peak current elicited with the same protocol during wash-out) elicited with a single test pulse to 0 mV was plotted against the applied concentration of the drug [C]. Concentration-response-curves were fitted using a Hill equation yielding the concentrations for half-maximum channel blockade (ICR50), and the respective Hill coefficients nH. (I)/(Imax) = (IC50^nH)/(IC50^nH + C^nH) [formula] (I)/(Imax) = a(ICR50^nH)/(ICR50^nH + C^nH) + (1-a)(ICI50^nH)/(ICI50^nH + C^nH) [formula]
In the presence of Hexetidine, a 2-state Hill equation, Eq. 2, was applied, yielding the concentrations for half-maximum channel blockade in the inactivated state (ICI50), the respective Hill coefficient nH, and the respective amplitudes a and (1-a). The values previously obtained for ICR50 and nH were entered as constant factors.

[2] = target: T1, α-subunit of NaV1.2 neuronal sodium channels; assay: Whole-cell voltage-clamp, double-pulse protocol: steady-state availability (fast inactivation), voltage shift and model-dependent affinity for inactivated channels; format: cell-based; design: expressed in transfected cells; host or cells: HEK 293, stably transfected with expression vector pRc/CMV and selected with G418; conditions: for nHI: Hill coefficient for inactivated state binding, model fit of Eq.4; for maximum shift in voltage-dependence of sodium channel availability: negative shift in midpoints of steady-state availability plots
Description: Transfection was performed using calcium phosphate precipitation. […] Successful channel expression was verified electrophysiologically.
The bath solution contained [mM] […] Patch electrodes contained [mM]
Each cell was exposed to one test concentration only.
Experiments with a rise in series resistance were rejected.
Drug binding to inactivated channels is hardly accessible to a direct experimental approach, because inactivated channel states and all drug-bound channel states are unavailable on depolarization. A model-dependent method is generally applied to determine the affinity to fast-inactivated channel states. The voltage-dependence of the block and the affinity for fast-inactivated channel states was further assessed by applying a double-pulse protocol. Currents elicited by test pulses (Itest), starting from varying prepulse potentials (from -150 mV to -5 mV), normalized to the current elicited at the most hyperpolarized prepotential (-150 mV), represent the relative fraction of channels that have not been inactivated during the 100 ms inactivating prepulse. Boltzmann fits to the resulting current-voltage plots yield the membrane potential at half-maximum channel availability (V0.5) and the slope factor k, reflecting the 'voltage sensitivity' of inactivation gating (see Eq. 3). (I)/(Imax) = (1)/(1 + e^(((Vtest -V0.5)/(k)))) [formula]
In control conditions, the parameters of the Boltzmann fits reflect the voltage-dependence of the distribution between resting and fast-inactivated channels (the availability curve). In the presence of the drug, the steady-state availability curve reflects drug association with rested and fast-inactivated channels, respectively. […] The underlying assumption is that the higher amount of channel blockade achieved with consecutive membrane depolarization is determined by the distribution of channels between resting and fast-inactivated states along the voltage axis (i.e. the channel availability curve), and by the different binding affinities of the blocking drug for the two channel states. The voltage shift ΔV0.5 in the presence of a drug would depend upon the drug concentration [C] according to Eq. 4. A fit of the model to ΔV0.5 plotted against concentration yields estimates for the concentration for half-maximum effect on fast-inactivated channels ICI50 and the Hill-type coefficient for drug binding to inactivated channels n: ΔV0.5 = k.ln[(1+([C])/(ICR50))/(1+(([C])^n)/(ICR50^n)) [formula]
K and ICR50 are entered as constant factors. K is the slope factor of the availability curve in the controls and ICR50 is the concentration for half-maximum effect on resting channels, obtained at -100 mV holding potential.

[3] = -100 mV, after application of higher concentrations (> EC50)
[4] = ECR50, half maximum blocking concentration, resting channels, fit to concentration-response plots at -150 mV holding potential, HEK 293, 20°C
[5] = estimate for inactivated channels, model fit of Eq.4 to concentration-dependence of the voltage shift in the availability curve, read-out: ECI50

T1 sequence (P04775 whole entry): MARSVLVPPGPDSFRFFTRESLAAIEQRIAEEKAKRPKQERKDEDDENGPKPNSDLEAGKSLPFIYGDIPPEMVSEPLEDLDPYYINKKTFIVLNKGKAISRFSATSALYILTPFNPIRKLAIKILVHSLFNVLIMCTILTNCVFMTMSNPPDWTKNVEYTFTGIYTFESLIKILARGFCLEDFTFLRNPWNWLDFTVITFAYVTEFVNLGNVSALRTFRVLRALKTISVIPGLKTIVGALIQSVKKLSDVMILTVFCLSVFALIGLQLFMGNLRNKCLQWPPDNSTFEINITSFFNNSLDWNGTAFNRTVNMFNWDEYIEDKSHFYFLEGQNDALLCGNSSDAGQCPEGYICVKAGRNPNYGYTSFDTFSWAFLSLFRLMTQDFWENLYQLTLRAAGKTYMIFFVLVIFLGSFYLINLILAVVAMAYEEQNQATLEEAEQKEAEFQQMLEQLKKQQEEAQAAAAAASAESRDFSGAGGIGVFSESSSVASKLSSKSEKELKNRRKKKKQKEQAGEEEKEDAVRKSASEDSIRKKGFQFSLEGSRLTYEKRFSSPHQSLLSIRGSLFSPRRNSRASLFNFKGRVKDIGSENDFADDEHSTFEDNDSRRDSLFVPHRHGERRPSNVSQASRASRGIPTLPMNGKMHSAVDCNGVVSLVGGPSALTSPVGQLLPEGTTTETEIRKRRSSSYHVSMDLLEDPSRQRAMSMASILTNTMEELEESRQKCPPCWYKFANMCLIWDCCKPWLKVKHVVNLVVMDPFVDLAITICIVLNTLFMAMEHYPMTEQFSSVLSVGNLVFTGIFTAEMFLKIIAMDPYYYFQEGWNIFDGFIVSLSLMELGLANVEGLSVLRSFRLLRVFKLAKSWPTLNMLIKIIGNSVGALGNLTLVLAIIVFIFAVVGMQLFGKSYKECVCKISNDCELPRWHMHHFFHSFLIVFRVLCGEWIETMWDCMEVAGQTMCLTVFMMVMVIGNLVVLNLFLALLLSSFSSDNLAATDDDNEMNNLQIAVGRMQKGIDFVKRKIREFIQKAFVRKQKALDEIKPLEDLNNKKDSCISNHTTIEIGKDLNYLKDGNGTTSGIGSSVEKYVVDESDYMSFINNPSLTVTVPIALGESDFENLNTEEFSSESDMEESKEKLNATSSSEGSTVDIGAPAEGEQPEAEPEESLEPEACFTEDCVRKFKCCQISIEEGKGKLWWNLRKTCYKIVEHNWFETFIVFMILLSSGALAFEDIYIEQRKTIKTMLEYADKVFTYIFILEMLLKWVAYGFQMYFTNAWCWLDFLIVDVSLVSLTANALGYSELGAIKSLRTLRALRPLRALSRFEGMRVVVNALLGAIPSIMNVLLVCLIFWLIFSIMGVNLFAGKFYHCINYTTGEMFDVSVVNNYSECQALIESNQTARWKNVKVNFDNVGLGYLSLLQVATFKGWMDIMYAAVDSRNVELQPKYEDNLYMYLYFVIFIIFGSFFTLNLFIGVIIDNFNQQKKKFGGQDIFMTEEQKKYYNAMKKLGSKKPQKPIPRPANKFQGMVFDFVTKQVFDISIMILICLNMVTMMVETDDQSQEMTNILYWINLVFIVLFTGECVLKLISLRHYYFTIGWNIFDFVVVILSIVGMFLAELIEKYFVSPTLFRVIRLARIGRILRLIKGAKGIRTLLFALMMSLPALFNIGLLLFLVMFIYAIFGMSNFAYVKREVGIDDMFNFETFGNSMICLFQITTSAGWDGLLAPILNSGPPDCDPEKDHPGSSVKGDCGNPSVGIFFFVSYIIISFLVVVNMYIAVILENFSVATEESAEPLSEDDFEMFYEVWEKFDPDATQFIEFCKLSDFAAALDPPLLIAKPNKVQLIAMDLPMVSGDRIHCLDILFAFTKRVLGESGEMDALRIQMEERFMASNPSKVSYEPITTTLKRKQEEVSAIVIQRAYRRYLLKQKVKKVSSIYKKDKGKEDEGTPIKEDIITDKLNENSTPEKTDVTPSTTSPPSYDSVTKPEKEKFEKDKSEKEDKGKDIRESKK

CCCCCc1ccc(C)cc1O [AMC, amylmetacresol]
IC50 [1]: 55 µM | currents during wash-out, % of control current ([1]; -70 mV holding potential): 64 ± 9% | currents during wash-out, % of control current ([1]; -100 mV holding potential): 91 ± 3% | currents during wash-out, % of control current [1, 3]: 94 ± 6% | currents during wash-out, % of control current ([1]; -150 mV holding potential): 90 ± 3% | potency for block of resting sodium channels relative to lidocaine ([1]; depolarization from the resting state): around 10 fold | IC50 [2]: 22 µM | ECI50 lower than the ECR50 ([2]; inactivated versus resting channels): around 3 fold

OCc1ccc(Cl)cc1Cl [DCBA, 2,4-dichlorobenzyl alcohol]
currents during wash-out, % of control current ([1]; -70 mV holding potential): 63 ± 9% | sensitivity at -70 mV holding potential compared to hyperpolarized holding potentials [1]: slightly increased | currents during wash-out, % of control current ([1]; -100 mV holding potential): 89 ± 5% | currents during wash-out, % of control current amplitude ([1]; -100 mV holding potential, after 300 and 500 µM DCBA): 71 ± 3% | currents during wash-out, % of control current ([1]; -150 mV holding potential): 88 ± 3% | IC50 [1, 4]: 657 µM | nHR ([1]; -150 mV holding potential): 3.5 | blocking potency compared with lidocaine (words) ([1]; listed as Dichlorobenzyl alcohol): about as potent as lidocaine | blocking potency compared with lidocaine (words) ([1]; listed as dichlorobenzyl alcohol): comparable | estimated affinity to inactivated channels compared to resting channels [2]: several fold higher | nHI [2]: 0.4 | IC50 [2, 5]: 5.2 µM | maximum shift in voltage-dependence of sodium channel availability [2]: -15 mV

CCCCCCc1ccc(O)cc1O [HR, hexylresorcinol]
currents during wash-out, % of control current ([1]; -100 mV holding potential): 94 ± 4% | currents during wash-out, % of control current [1, 3]: 90 ± 10% | currents during wash-out, % of control current ([1]; -150 mV holding potential): 95 ± 3% | IC50 [1, 4]: 21 µM | IC50 [2, 5]: 0.3 µM

CCCCC(CC)CN1CN(CC(CC)CCCC)CC(C)(N)C1 (stereo not drawn) [HT, hexetidine]
concentrations toxic for the seal in whole cell experiments [1]: above 30 µM | block of sodium inward currents ([1]; 100 µM, 3 experiments, not solely attributable to specific channel block): complete block | currents during wash-out, % of control current ([1]; -70 mV holding potential): 47 ± 11% | sensitivity at -70 mV holding potential compared to hyperpolarized holding potentials [1]: increased | currents during wash-out, % of control current ([1]; -150 mV holding potential): 80 ± 8% | IC50 [1, 4]: 35 µM | nHR ([1]; -150 mV holding potential): 1.08 | IC50 ([1]; estimated EC50, high-affinity binding site, biphasic concentration-response curve, two distinct binding sites): 0.001 µM | inhibition at 0.1 µM ([1]; read-out: block, % of the control current amplitude): 41 ± 13% | estimated affinity to inactivated channels compared to resting channels [2]: several fold higher | nHI [2]: 0.5 | IC50 [2, 5]: 0.05 µM | maximum shift in voltage-dependence of sodium channel availability [2]: -21 mV

Source: patent EP2570123A1, “Use of 2,4-dichlorobenzyl alcohol having an anaesthetic effect” (Reckitt Benckiser Healthcare (UK) Limited, priority 2007, dated 2009)
